Results from patent US10501479B2, “Benzenesulfonyl-asymmetric ureas and medical uses thereof” (HELSINN HEALTHCARE SA, priority 2016, dated 2019).

Tests used:
[1] = molecular target: T1, recombinant human ghrelin receptor (HEK293/GRLN) (Homo sapiens, UniProt Q92847); experiment: Ghrelin inverse agonist potency (EC50) with IP-1 (IP-One HTRF) assay; format: cell-based; settings: IP-1 assay, HEK293/GRLN; read-out: Activity EC50 (ghrelin inverse agonist potency)
T1 construct: expressed in transfected cells
T1 sequence (Q92847 whole entry): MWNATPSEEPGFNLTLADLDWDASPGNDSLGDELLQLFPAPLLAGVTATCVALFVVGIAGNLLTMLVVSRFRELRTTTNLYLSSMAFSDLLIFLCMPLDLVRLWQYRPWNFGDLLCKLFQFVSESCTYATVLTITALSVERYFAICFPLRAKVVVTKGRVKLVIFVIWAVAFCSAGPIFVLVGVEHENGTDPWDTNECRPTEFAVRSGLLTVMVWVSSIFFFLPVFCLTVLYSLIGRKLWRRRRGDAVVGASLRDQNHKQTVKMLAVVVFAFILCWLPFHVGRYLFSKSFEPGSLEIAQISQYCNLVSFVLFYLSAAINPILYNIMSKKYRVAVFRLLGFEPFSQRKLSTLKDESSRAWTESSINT
How it was run: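 HEK293/GRLN cells were seeded 18-22 hours before the test, then exposed to compound in stimulation buffer for 1 hour at 37° C, 5% CO2. IP-1 was detected by IP-One HTRF (IP1-d2 plus Tb-cryptate, 1 hour RT), reading 620 and 665 nm; the inverse agonist EC50 was derived from this.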

[2] = molecular target: T2, GHSR-1a (HEK293/GHSR1a cell line) (Homo sapiens, UniProt Q92847); experiment: Ghrelin agonist potency (EC50) with calcium FLIPR assay; format: cell-based; settings: HEK293/GHSR1a, read-out: Activity EC50/EMax: EC50 (ghrelin agonist potency)
T2 construct: expressed in transfected cells; host or cells: HEK293/GHSR1a cell line
T2 sequence (Q92847 whole entry): as above
How it was run: (§1)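 HEK293/GHSR1a cells, seeded 24 hr ahead and loaded with calcium dye 30-60 min, were read by FLIPR fluorescence for 2 min after addition at t=20 sec. Agonism: compound alone, EC50 from dose-response. Antagonism: compound plus 10 nM ghrelin, IC50 from reduction of ghrelin response.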

[3] = molecular target: T2, GHSR-1a (HEK293/GHSR1a cell line); experiment: Ghrelin antagonist potency (IC50) with calcium FLIPR assay, ghrelin 10 nM; format: cell-based; settings: HEK293/GHSR1a, ghrelin 10 nM, read-out: Activity IC50 (ghrelin antagonist potency)
How it was run: as §1

[4] = Metabolic stability in human liver microsomes; format: in vitro ADME
How it was run: (§2)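 Compound incubated with human, dog, rat or mouse liver microsomes in 100 mM potassium phosphate, pH 7.4, at 37 °C. Reaction started with an NADPH regenerating system. Samples quenched at 0, 10, 30 and 90 min, and remaining compound measured by LC-MS/MS.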

[5] = Metabolic stability in mouse liver microsomes; format: in vitro ADME
How it was run: as §2

Structure (SMILES)	EC50 [1] [nM]	EC50 [2] [nM]	IC50 [3] [nM]	Metabolic Stability Study H = human [4] [µL/min/mg]	Metabolic Stability Study M = mouse [5] [µL/min/mg]
CC(NC(=O)Nc1ccc(S(=O)(=O)Cc2ccc3c(c2)CNC3)cc1F)c1ccccc1F.Cl (stereo not shown) [H1389, 1-(2-fluoro-4-((isoindolin-5-ylmethyl)sulfonyl)phenyl)-3-(1-(2-fluorophenyl)ethyl)urea]	15.1	> 30000	27.6	21.3	21.2
COc1ccccc1C(C)NC(=O)Nc1ccc(S(=O)(=O)Cc2ccc3c(c2)CNC3)cc1F.Cl (stereo not shown) [H1390, 1-(2-fluoro-4-((isoindolin-5-ylmethyl)sulfonyl)phenyl)-3-(1-(2-methoxyphenyl)ethyl)urea]	10.7	> 30000	36.4	34.6	55.9
CC(NC(=O)Nc1ccc(S(=O)(=O)Cc2ccc3c(c2)CNC3)cc1)c1c(F)cccc1F (stereo not shown) [H1391, 1-(1-(2,6-difluorophenyl)ethyl)-3-(4-((isoindolin-5-ylmethyl)sulfonyl)phenyl)urea]	7.2	> 30000	10.5	14.8	11.8
COc1cc(S(=O)(=O)Cc2ccc3c(c2)CNC3)ccc1NC(=O)NC(C)c1ccccc1OC (stereo not shown) [H1393, 1-(4-((isoindolin-5-ylmethyl)sulfonyl)-2-methoxyphenyl)-3-(1-(2-methoxyphenyl)ethyl)urea]	3.73	> 30000	9.2	55.5	55.1
C[C@@H](NC(=O)Nc1ccc(S(=O)(=O)Cc2cc(F)c3c(c2)CNC3)cc1)c1ccccc1.Cl [H1394, (R)-1-(4-(((7-fluoroisoindolin-5-yl)methyl)sulfonyl)phenyl)-3-(1-phenylethyl)urea]	7.8	> 30000	51.9	67.4	182.5
C[C@@H](NC(=O)Nc1ccc(S(=O)(=O)Cc2ccc3c(c2F)CNC3)cc1)c1ccccc1 [H1396, (R)-1-(4-(((4-fluoroisoindolin-5-yl)methyl)sulfonyl)phenyl)-3-(1-phenylethyl)urea]	1.3	> 30000	10.8	62.5	330.4
CC1c2ccccc2CCN1C(=O)Nc1ccc(S(=O)(=O)Cc2ccc3c(c2)CNC3)cc1 (stereo not shown) [H1397, N-(4-((isoindolin-5-ylmethyl)sulfonyl)phenyl)-1-methyl-3,4-dihydroisoquinoline-2(1H)-carboxamide]	67.8	> 30000	1100	35.1	32
COc1cc(S(=O)(=O)Cc2ccc3c(c2)CNC3)ccc1NC(=O)N(C)C(C)c1ccccc1 (stereo not shown) [H1398, 3-(4-((isoindolin-5-ylmethyl)sulfonyl)-2-methoxyphenyl)-1-methyl-1-(1-phenylethyl)urea]	62.6	> 30000	629	52.9	80.5
CC1Cc2cc(CS(=O)(=O)c3ccc(NC(=O)NC(C)c4ccccc4)cc3)ccc2CN1 (stereo not shown) [H1406, 1-(4-(((3-methyl-1,2,3,4-tetrahydroisoquinolin-6-yl)methyl)sulfonyl)phenyl)-3-(1-phenylethyl)urea]	7.92	> 30000	85.5	15	22.2
CC(NC(=O)Nc1ccc(S(=O)(=O)Cc2ccc3c(c2)CC(C)N(C)C3)cc1)c1ccccc1 (stereo not shown) [H1407, 1-(4-(((2,3-dimethyl-1,2,3,4-tetrahydroisoquinolin-6-yl)methyl)sulfonyl)phenyl)-3-(1-phenylethyl)urea]	1.45	> 30000	12.7	144.4	84.1
CC(NC(=O)Nc1ccc(S(=O)(=O)Cc2ccc3c(c2F)CNC3)cc1)c1c(F)cccc1F (stereo not shown) [H1410]	13.2	> 30000	32	73.3	358.6
COc1cc(S(=O)(=O)Cc2ccc3c(c2)CNC3)ccc1NC(=O)NC(C)c1c(F)cccc1F (stereo not shown) [H1412, 1-(1-(2,6-difluorophenyl)ethyl)-3-(4-((isoindolin-5-ylmethyl)sulfonyl)-2-methoxyphenyl)urea]	4.3	> 30000	15.7	22.5	122.4
COc1cc(S(=O)(=O)Cc2ccc3c(c2)CN(C)C3)ccc1NC(=O)NC(C)c1cccc2ccccc12 (stereo not shown) [H1425, 1-(2-methoxy-4-(((2-methylisoindolin-5-yl)methyl)sulfonyl)phenyl)-3-(1-(naphthalen-1-yl)ethyl)urea]	1.8	> 30000	8.1	310.0	141.5
COc1cc(S(=O)(=O)Cc2ccc3c(c2)CN(C)C3)ccc1NC(=O)NC(C)c1ccccc1F (stereo not shown) [H1426, 1-(1-(2-fluorophenyl)ethyl)-3-(2-methoxy-4-(((2-methylisoindolin-5-yl)methyl)sulfonyl)phenyl)urea]	3.4	> 30000	52.9	77.3	80.6
COc1cc(S(=O)(=O)Cc2ccc3c(c2)CN(C)C3)ccc1NC(=O)NC(C)c1cccc(Cl)c1Cl (stereo not shown) [H1427, 1-(1-(2,3-dichlorophenyl)ethyl)-3-(2-methoxy-4-(((2-methylisoindolin-5-yl)methyl)sulfonyl)phenyl)urea]	0.7	> 30000	3.8	58.8	82.1
COc1cc(S(=O)(=O)Cc2ccc3c(c2)CCN(C)C3)ccc1NC(=O)NC(C)c1cccc(Cl)c1Cl (stereo not shown) [H1428, 1-(1-(2,3-dichlorophenyl)ethyl)-3-(2-methoxy-4-(((2-methyl-1,2,3,4-tetrahydroisoquinolin-6-yl)methyl)sulfonyl)phenyl)urea]	0.5	> 30000	3.3	69.3	194.8
CC(NC(=O)Nc1ccc(S(=O)(=O)Cc2ccc3c(c2)CN(C)C3)cc1)c1c(F)cccc1F (stereo not shown) [H1429, 1-(1-(2,6-difluorophenyl)ethyl)-3-(4-(((2-methylisoindolin-5-yl)methyl)sulfonyl)phenyl)urea]	7.31	> 30000	160	65.2	63.6
